# Molecular target: recombinant human MGAT2 (Homo sapiens (Human), UniProt Q3SYC2)
# Assay: Measurement of human MGAT2 inhibitory activity
# Assay type: biochemical
# Details: recombinant human MGAT2 membrane fraction (Sf-9); 2-Oleoylglycerol and Oleoyl-CoA substrates; 1 hour at room temperature; Diolein detected by RapidFire Q-TOF MS
# Text: A full-length human MGAT2 gene to which a Flag-tag had been added at the N-terminal was inserted into pFastBac (from Invitrogen). A recombinant baculovirus was produced in accordance with the protocol for a Bac-to-Bac baculovirus expression system (produced by Invitrogen), and Sf-9 cells were infected therewith. The cells were collected and sonicated, and then the membrane fraction was collected through centrifugation.
# Solutions of the compounds of the present invention in DMSO were each aliquoted into 0.2-μL portions in a 384-well polystyrene microplate produced by Corning Incorporated, and 5 μL of an enzyme solution prepared with an assay buffer (100 mmol/L phosphate buffer (pH 7.4) containing 2 mmol/L DTT) and 5 μL of a substrate solution (100 mmol/L phosphate buffer (pH 7.4), 30 μmol/L 2-Oleoylglycerol, 10 μmol/L Oleoyl-CoA) were added thereto, and the resultant was stirred and centrifuged, and incubated in a moist chamber at room temperature for 1 hour. […] Diolein as a reaction product (P) of 2-Oleoylglycerol as the substrate and an ammonium adduct ion of the IS were detected, and the peak intensity ratio, P/IS, was calculated from the peak heights to evaluate the inhibitory activity. […] The inhibitory activity was calculated from the formula below with TIBCO Spotfire (produced by TIBCO Software Inc.): Inhibitory activity (%)=[1−{Sample−Control(−)}/{Control(+)−Control(−))}]*100 where Sample indicates a peak intensity ratio: P/IS, when the compound of the present invention was added.
# Sequence of recombinant human MGAT2 (Q3SYC2 whole entry): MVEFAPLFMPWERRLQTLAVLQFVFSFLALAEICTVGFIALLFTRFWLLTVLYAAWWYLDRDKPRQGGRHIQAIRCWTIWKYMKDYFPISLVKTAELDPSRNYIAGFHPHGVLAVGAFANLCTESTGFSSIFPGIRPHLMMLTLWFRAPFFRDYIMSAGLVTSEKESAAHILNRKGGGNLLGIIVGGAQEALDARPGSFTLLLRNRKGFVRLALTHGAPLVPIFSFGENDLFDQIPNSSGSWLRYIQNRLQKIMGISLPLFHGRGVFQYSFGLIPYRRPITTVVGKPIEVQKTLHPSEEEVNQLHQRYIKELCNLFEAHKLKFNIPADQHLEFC
compound,measurement,value
CC(C)c1ccc(C2=C(CNC(=O)CO)C(=O)N[C@@](c3ccc(OCCCC(F)(F)F)cc3)(C(F)(F)F)C2)nc1 [Compound I-60],IC50,27 nM
CC(C)c1ccc(C2=C(CNC(=O)CN(C)C)C(=O)N[C@@](c3ccc(OCCCC(F)(F)F)cc3)(C(F)(F)F)C2)nc1 [Compound I-61],IC50,27 nM
O=C(CO)NCC1=C(c2ccc(OC(F)F)cn2)C[C@](c2ccc(OCCCC(F)(F)F)cc2)(C(F)(F)F)NC1=O [Compound I-62],IC50,59 nM
O=C(CO)NCC1=C(c2ccc(C(F)F)cn2)C[C@](c2ccc(OCCCC(F)(F)F)cc2)(C(F)(F)F)NC1=O [Compound I-63],IC50,110 nM
CC(C)(C)OC(=O)N1CC(C(=O)NCC2=C(c3ccc(C(F)F)cn3)C[C@](c3ccc(OCCCC(F)(F)F)cc3)(C(F)(F)F)NC2=O)C1 [Compound I-64],IC50,14 nM
O=C1N[C@@](c2ccc(OCCCC(F)(F)F)cc2)(C(F)(F)F)CC(c2ccc(C(F)F)cn2)=C1CNC(=O)C1CNC1 [Compound I-65],IC50,280 nM
CC1(C(=O)NCC2=C(c3ccc(C(F)F)cn3)C[C@](c3ccc(OCCCC(F)(F)F)cc3)(C(F)(F)F)NC2=O)CNC1 [Compound I-66],IC50,410 nM
O=C1N[C@@](c2ccc(OCCCC(F)(F)F)cc2)(C(F)(F)F)CC(c2ccc(C(F)F)cn2)=C1CNC(=O)C1(F)CNC1 [Compound I-67],IC50,40 nM
CC(=O)NCC1=C(c2ncc(C3CC3)s2)C[C@](c2ccc(OCCCC(F)(F)F)cc2)(C(F)(F)F)NC1=O [Compound I-68],IC50,440 nM
CS(=O)(=O)CC(=O)NCC1=C(c2ncc(C3CC3)s2)C[C@](c2ccc(OCCCC(F)(F)F)cc2)(C(F)(F)F)NC1=O [Compound I-69],IC50,43 nM
CS(=O)(=O)CC(=O)NCC1=C(c2ccc(Br)cn2)C[C@](c2ccc(OCCCC(F)(F)F)cc2)(C(F)(F)F)NC1=O [Compound I-70],IC50,5.3 nM
CS(=O)(=O)CC(=O)NCC1=C(c2ccc(Br)cn2)C[C@@](c2ccc(OCCCC(F)(F)F)cc2)(C(F)(F)F)NC1=O [Compound I-71],IC50,940 nM
C=C(C)c1ccc(C2=C(CNC(=O)CS(C)(=O)=O)C(=O)N[C@@](c3ccc(OCCCC(F)(F)F)cc3)(C(F)(F)F)C2)nc1 [Compound I-72],IC50,1 nM
C=C(C)c1ccc(C2=C(CNC(=O)CS(C)(=O)=O)C(=O)N[C@](c3ccc(OCCCC(F)(F)F)cc3)(C(F)(F)F)C2)nc1 [Compound I-73],IC50,77 nM
CS(=O)(=O)CC(=O)NCC1=C(c2ccc(C(F)F)cn2)C[C@](c2ccc(C(F)(F)F)cc2)(C(F)(F)F)NC1=O [Compound I-75],IC50,78 nM
CS(=O)(=O)CC(=O)NCC1=C(c2ccc(OC(F)F)cn2)C[C@](c2ccc(Br)cc2)(C(F)(F)F)NC1=O [Compound I-78],IC50,25 nM
CC(C)(C(=O)NCC1=C(c2ccc(C(F)F)cn2)C[C@](c2ccc(OCCCC(F)(F)F)cc2)(C(F)(F)F)NC1=O)S(C)(=O)=O [Compound I-80],IC50,990 nM
CS(=O)(=O)C1(C(=O)NCC2=C(c3ccc(C(F)F)cn3)C[C@](c3ccc(OCCCC(F)(F)F)cc3)(C(F)(F)F)NC2=O)CC1 [Compound I-81],IC50,140 nM
CC(C(=O)NCC1=C(c2ccc(C(F)F)cn2)C[C@](c2ccc(OCCCC(F)(F)F)cc2)(C(F)(F)F)NC1=O)S(C)(=O)=O (stereo partly drawn) [Compound I-83],IC50,22 nM
CC(C(=O)NCC1=C(c2ccc(C(F)F)cn2)C[C@](c2ccc(OCCCC(F)(F)F)cc2)(C(F)(F)F)NC1=O)S(C)(=O)=O (stereo partly drawn) [Compound I-85],IC50,24 nM
CS(=O)(=O)CC(=O)NCC1=C(c2ccc(C(F)F)cn2)C[C@](c2ccc(CCC(F)(F)F)cc2)(C(F)(F)F)NC1=O [Compound I-86],IC50,1.9 nM
CS(=O)(=O)CC(=O)NCC1=C(c2ccc(C(F)F)cn2)C[C@](c2ccc(C3CC3)cc2)(C(F)(F)F)NC1=O [Compound I-88],IC50,21 nM
CS(=O)(=O)CC(=O)NCC1=C(c2ccc(C(F)F)cn2)C[C@](c2ccc(OC(F)(F)F)cc2)(C(F)(F)F)NC1=O [Compound I-90],IC50,27 nM
CS(=O)(=O)CC(=O)NCC1=C(c2ccc(C(F)F)cn2)C[C@](c2ccc(OCC(F)(F)F)cc2)(C(F)(F)F)NC1=O [Compound I-91],IC50,6.8 nM
CS(=O)(=O)CC(=O)NCC1=C(c2ccc(C(F)F)cn2)C[C@](c2ccc(Br)cc2)(C(F)(F)F)NC1=O [Compound I-94],IC50,59 nM
CS(=O)(=O)CC(=O)NCC1=C(c2ccc(OC(F)F)cn2)C[C@](c2ccc(C3CC3)cc2)(C(F)(F)F)NC1=O [Compound I-95],IC50,17 nM
CS(=O)(=O)CC(=O)NCC1=C(c2ccc(C(F)F)cn2)C[C@](c2ccc(CN3CCOCC3)cc2)(C(F)(F)F)NC1=O [Compound I-97],IC50,39 nM
Cn1cc(-c2ccc([C@]3(C(F)(F)F)CC(c4ccc(OC(F)F)cn4)=C(CNC(=O)CS(C)(=O)=O)C(=O)N3)cc2)cn1 [Compound I-98],IC50,70 nM
CS(=O)(=O)CC(=O)NCC1=C(c2ccc(OC(F)F)cn2)C[C@](c2ccc(-c3ccccc3)cc2)(C(F)(F)F)NC1=O [Compound I-99],IC50,26 nM
Cn1ccc(-c2ccc([C@]3(C(F)(F)F)CC(c4ccc(OC(F)F)cn4)=C(CNC(=O)CS(C)(=O)=O)C(=O)N3)cc2)cc1=O [Compound I-100],IC50,370 nM
CS(=O)(=O)CC(=O)NCC1=C(c2ccc(OC(F)F)cn2)C[C@](c2ccc(C3=CCOCC3)cc2)(C(F)(F)F)NC1=O [Compound I-101],IC50,42 nM
COC/C=C/c1ccc([C@]2(C(F)(F)F)CC(c3ccc(OC(F)F)cn3)=C(CNC(=O)CS(C)(=O)=O)C(=O)N2)cc1 [Compound I-102],IC50,21 nM
CS(=O)(=O)CC(=O)NCC1=C(c2ccc(OC(F)F)cn2)C[C@](c2ccc(OCCCC(F)(F)F)cn2)(C(F)(F)F)NC1=O [Compound I-103],IC50,6.6 nM
CS(=O)(=O)CC(=O)NCC1=C(c2ccc(OC(F)F)cn2)C[C@](c2ccc(OCC(F)F)cc2)(C(F)(F)F)NC1=O [Compound I-105],IC50,9.2 nM
CS(=O)(=O)CC(=O)NCC1=C(c2ccc(OC(F)F)cn2)C[C@](c2ccc(C(F)(F)F)cc2)(C(F)(F)F)NC1=O [Compound I-108],IC50,46 nM
CS(=O)(=O)CC(=O)NCC1=C(c2ccc(C(F)F)cn2)CC(c2ccc(Br)cc2F)(C(F)(F)F)NC1=O (stereo not drawn) [Compound I-111],IC50,33 nM
O=C(CC(F)(F)F)NCC1=C(c2ccc(C(F)F)cn2)C[C@](c2ccc(OCCCC(F)(F)F)cc2)(C(F)(F)F)NC1=O [Compound I-112],IC50,3.8 nM
CS(=O)(=O)CC(=O)NCC1=C(c2ccc(OC(F)F)cn2)C[C@](c2ccc(OCC(F)(F)F)cc2)(C(F)(F)F)NC1=O [Compound I-114],IC50,4.1 nM
CS(=O)(=O)CC(=O)NCC1=C(c2ccc(C(F)F)cn2)C[C@](c2ccccc2)(C(F)(F)F)NC1=O [Compound I-115],IC50,110 nM

# Source: patent US10335401B2, “Non-aromatic heterocyclic derivative having MGAT2 inhibitory activity” (Shionogi & Co., Ltd., priority 2015, dated 2019)
